What all share (experiment): growth of human tumour cells (NCI), 48 h
Assay [1] concerns UACC-62.
In assay [2] the test system is HT-29.
The subject of assay [3] is SK-MEL-2.
Assay [4] relates to M14.
In assay [5] the test system is KM12.
For assay [6], the system named is EKVX.
Assay [7] deals with OVCAR-5.
The test system of assay [8] is SR.
The subject of assay [9] is SF-268.
Assay [10] deals with DMS-114.
Assay [11] concerns HCC 2998.
Assay [12] relates to SF-539.
For assay [13], the system named is HCT-116.
Assay [14] has as its system TK-10.
In assay [15] the test system is SK-MEL-5.
In assay [16] the test system is HOP-92.

The structures appear in SMILES notation.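 In this assay, cells in 96-well plates receive the compound at five concentrations for 48 hours. Endpoints are linearly interpolated between the surrounding concentrations. GI50: concentration for 50% inhibition of growth.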 Activity calls are given as the source filed them. No stated cut-off is given here; in the data, active = GI50 up to about 1.1 µM and inactive = higher.

Turning to `COCNC(=NC#N)NCOC`, the GI50 in assay [1] is > 100 µM (inactive); in [2], > 100 µM (inactive); in assay [3], > 100 µM (inactive); in assay [4], > 100 µM (inactive); in assay [5], > 52 µM (inactive); in assay [6], > 100 µM (inactive). Also, the GI50 was > 100 µM (inactive) in assay [7]; 20.2 µM (inactive) in assay [8]; > 100 µM (inactive) in [9]; > 51.8 µM (inactive) in assay [10]; > 100 µM (inactive) in assay [11]; > 100 µM (inactive) in assay [12]. The GI50 is > 65.9 µM (inactive) in assay [13], > 100 µM (inactive) in [14], > 100 µM (inactive) in assay [15] and > 100 µM (inactive) in [16].
With `O=C1CCCC2COc3ccc(O)c1c32` (stereo unspecified), the GI50 in assay [1], in [2], in assay [3], in [4], in assay [5] and in assay [6] was > 100 µM (inactive) throughout. The GI50 in [7], in assay [8], in assay [9], in assay [10], in [11] and in assay [12] was > 100 µM (inactive) in each case. The GI50 in assay [14], in [15] and in assay [16] was > 100 µM (inactive) in each case.
Turning to `Cc1cc(Cl)ccc1NC(=O)/C(=N\NC(C)(C)C)C(C#N)c1nc(-c2ccc([N+](=O)[O-])cc2)cs1` (stereo unspecified), the GI50 in assay [1], in assay [2], in [3], in assay [4], in assay [5] and in assay [6] was > 100 µM (inactive) throughout. Further, the GI50 in [7], in assay [8], in assay [9], in assay [10], in [11] and in assay [12] was > 100 µM (inactive) throughout. For the same compound, the GI50 in assay [13], in [14], in assay [15] and in [16] was > 100 µM (inactive) throughout.
In the case of `COC(=O)CC(NC(=O)OCc1ccccc1)C(C(=O)OCc1ccccc1)C1(C)OCCO1` (stereo unspecified), the GI50 in assay [1] is 18.7 µM (inactive); in assay [2], 53.6 µM (inactive); in assay [3], 20 µM (inactive); in [4] it was 40.7 µM (inactive); in [6], 44.4 µM (inactive); in assay [8] it was 19.1 µM (inactive). The GI50 in [9] was 50.1 µM (inactive); in assay [10] it was 23.6 µM (inactive); in assay [11] it was 61.9 µM (inactive); in [12], 54.6 µM (inactive); in assay [13], 40.4 µM (inactive); in assay [14] it was 57.1 µM (inactive). In addition, in assay [15], the GI50 is 17.5 µM (inactive).
Take `CO[C@H](c1ccccc1)[C@H](C)N(C)c1ccc2ccccc2c1C1=NC(C)(C)CO1`: the GI50 in assay [1] is 33.1 µM (inactive); in [2], 10.7 µM (inactive); in assay [3] it was 14.3 µM (inactive); in assay [4], 16.5 µM (inactive); in [5] it was 17.1 µM (inactive); in assay [6], 20.1 µM (inactive). In addition, the GI50 in assay [8] was 13.3 µM (inactive); in [9], 18.4 µM (inactive); in [10] it was 12.1 µM (inactive); in [12], 16.2 µM (inactive); in assay [13] it was 10.8 µM (inactive); in assay [14], 22.9 µM (inactive). Moreover, the GI50 in [15] is 88.3 µM (inactive); in assay [16], 15.7 µM (inactive).
For the compound `Cc1no[n+]([O-])c1/C=N/NS(=O)(=O)c1ccccc1`, the GI50 in [1], in assay [2], in [3], in assay [4], in assay [5] and in assay [6] was > 100 µM (inactive) throughout. Also, the GI50 in assay [7], in [8], in assay [9], in assay [10], in assay [11] and in [12] was > 100 µM (inactive) each time. The GI50 in assay [13], in assay [14], in assay [15] and in assay [16] was > 100 µM (inactive) each time.
Turning to `Cc1c(Cl)c2ccccc2n1S(=O)(=O)c1ccccc1`, the GI50 in assay [1] was 87.3 µM (inactive); in assay [2], 46 µM (inactive); in assay [3], 28.8 µM (inactive); in assay [4], 37.8 µM (inactive); in assay [5], 37.9 µM (inactive); in assay [7], 33.5 µM (inactive). For the same compound, the GI50 in assay [8] is 32.1 µM (inactive); in [9], 64 µM (inactive); in assay [10] it was 37.9 µM (inactive); in [11], 33.6 µM (inactive); in assay [12], 54.1 µM (inactive); in [13] it was 39.2 µM (inactive). Moreover, the GI50 was 65.9 µM (inactive) in assay [14], 32.4 µM (inactive) in assay [15] and 15.7 µM (inactive) in assay [16].
As for `O=c1c(-c2cccc3ccccc23)c(-c2cccc3ccccc23)c1=O`, the GI50 was 1.04 µM (active) in assay [1]; 0.35 µM (active) in assay [2]; 2.29 µM (inactive) in assay [3]; 2.24 µM (inactive) in assay [4]; 0.608 µM (active) in assay [5]; 7.67 µM (inactive) in [6]. The GI50 in [7] was 24.7 µM (inactive); in [8], 1.43 µM (inactive); in assay [9] it was 5.47 µM (inactive); in assay [10], 2.1 µM (inactive); in assay [11], 0.979 µM (active); in assay [12], 1.38 µM (inactive). Further, the GI50 was 1.85 µM (inactive) in assay [13], 15.1 µM (inactive) in assay [14], 3 µM (inactive) in [15] and 0.948 µM (active) in assay [16].
For the compound `CCOC(=O)c1c[nH]c2c(ccc3nn(C)nc32)c1=O`, the GI50 in [1] is > 100 µM (inactive); in [2] it was > 100 µM (inactive); in [3], 19.4 µM (inactive); in [4], > 100 µM (inactive); in [5] it was > 100 µM (inactive); in [6], > 100 µM (inactive). Moreover, the GI50 was > 100 µM (inactive) in [7]; 84.1 µM (inactive) in [8]; > 100 µM (inactive) in assay [9]; 49.8 µM (inactive) in assay [10]; > 100 µM (inactive) in [11]; 24.9 µM (inactive) in assay [13]. Further, the GI50 in assay [14], in assay [15] and in assay [16] was > 100 µM (inactive) each time.
In the case of `C/C(=N/N)c1ccc2[nH]c3c(C)cc([N+](=O)[O-])c(C)c3c2c1`, the GI50 in [2] is 8.2 µM (inactive); in [3] it was 11.3 µM (inactive); in assay [4], 15 µM (inactive); in [5], > 10 µM (inactive); in assay [6] it was 22.2 µM (inactive); in assay [7], > 10 µM (inactive). Also, the GI50 was 5.83 µM (inactive) in [8]; 8.22 µM (inactive) in [9]; 9.89 µM (inactive) in assay [10]; 17.5 µM (inactive) in [11]; 4.76 µM (inactive) in assay [12]; 4.09 µM (inactive) in assay [13]. Further, the GI50 was 12.2 µM (inactive) in assay [14] and 5 µM (inactive) in [15].
As for `O=C1OC(=O)C([Se]c2ccccc2)=C1[Se]c1ccccc1`, the GI50 is > 100 µM (inactive) in assay [1]; 44.9 µM (inactive) in assay [2]; > 100 µM (inactive) in [4]; > 100 µM (inactive) in [6]; > 100 µM (inactive) in [7]; > 100 µM (inactive) in assay [8]. The GI50 in assay [9], in assay [10], in assay [12], in assay [13], in assay [14] and in assay [15] was > 100 µM (inactive) each time. Also, in assay [16], the GI50 is 70.1 µM (inactive).
With `CC1(O)C(C)(O)C2(C)O[Te]3(OC12C)OC1(C)C(C)(O)C(C)(O)C1(C)O3` (stereo unspecified), the GI50 in assay [1] was 35.6 µM (inactive); in [2] it was 27.3 µM (inactive); in assay [3], 44.6 µM (inactive); in assay [4] it was > 100 µM (inactive); in assay [5] it was 23.7 µM (inactive); in [6], > 100 µM (inactive). Also, the GI50 in assay [7] is 15.3 µM (inactive); in assay [8], 17.2 µM (inactive); in assay [9], > 10 µM (inactive); in assay [10] it was 20 µM (inactive); in assay [11], 42.7 µM (inactive); in assay [12], 29.1 µM (inactive). Besides, the results for the GI50 in [14], in assay [15] and in assay [16] were 23.1 µM (inactive), 15 µM (inactive) and 31 µM (inactive), respectively.
In the case of `Cn1ccnc1CCc1c(Cl)cccc1Cl`, the GI50 in [1], in [2], in assay [3], in assay [4], in assay [5] and in [7] was > 100 µM (inactive) in each case. For the same compound, the GI50 in [8], in assay [9], in assay [10], in [12], in assay [13] and in assay [14] was > 100 µM (inactive) throughout. Besides, the figures for the GI50 in assay [15] and in assay [16] were > 100 µM (inactive) and 52.1 µM (inactive), respectively.
For the compound `CCOC(=O)c1cnc2cc3cccccc3n2c1=O`, the GI50 in assay [1] was > 100 µM (inactive); in assay [2], > 100 µM (inactive); in [3] it was > 100 µM (inactive); in assay [4], > 100 µM (inactive); in [5], 60.7 µM (inactive); in assay [6], > 100 µM (inactive). Also, the GI50 is > 100 µM (inactive) in assay [7]; 45 µM (inactive) in assay [8]; > 100 µM (inactive) in [9]; 35 µM (inactive) in assay [10]; > 100 µM (inactive) in assay [11]; > 100 µM (inactive) in assay [12]. Moreover, the GI50 in [13] is 39.3 µM (inactive); in assay [14], > 100 µM (inactive).
